Source: the NIST ThermoML archive (doi:10.1021/acs.jced.8b00692)
Numbers after ± are expanded uncertainties.

Assay: xn = mol fraction of the nth substance listed
Details: 102 kPa, Liquid; for viscosity: Concentric cylinders viscometry; for speed of sound: Frequency=3 MHz, Single path-length method; for mass density: Vibrating tube method

CCCC1CCCCC1 [1-cyclohexylpropane] + CCCCCCCCCCCCCCCC
Details | mass density [kg/m3] | speed of sound [m/s] | viscosity [mPa·s]
293.15 K, x1 = 0.2001 | 775.57 ± 0.81 | 1349.9 ± 0.6 | 2.9 ± 0.02
293.15 K, x1 = 0.4008 | 778.35 ± 0.81 | 1341.6 ± 0.6 | 2.35 ± 0.02
293.15 K, x1 = 0.5001 | 779.98 ± 0.81 | 1336.9 ± 0.6 | 2.11 ± 0.01
293.15 K, x1 = 0.6009 | 781.97 ± 0.81 | 1331.7 ± 0.6 | 1.85 ± 0.01
293.15 K, x1 = 0.8301 | 787.65 ± 0.81 | 1318.8 ± 0.6 | 1.34 ± 0.01
293.15 K, x1 = 1 | 793.54 ± 0.81 | 1307.8 ± 0.6 | 0.996 ± 0.012
303.15 K, x1 = 0.2001 | 768.58 ± 0.81 | 1312.1 ± 0.6 | 2.34 ± 0.02
303.15 K, x1 = 0.4008 | 771.27 ± 0.81 | 1303.8 ± 0.6 | 1.94 ± 0.01
303.15 K, x1 = 0.5001 | 772.84 ± 0.81 | 1298.4 ± 0.6 | 1.74 ± 0.01
303.15 K, x1 = 0.6009 | 774.74 ± 0.81 | 1293.3 ± 0.6 | 1.55 ± 0.01
303.15 K, x1 = 0.8301 | 780.16 ± 0.81 | 1279.2 ± 0.6 | 1.14 ± 0.01
303.15 K, x1 = 1 | 785.73 ± 0.81 | 1266.2 ± 0.6 | 0.86 ± 0.012
313.15 K, x1 = 0.2001 | 761.59 ± 0.81 | 1275.2 ± 0.6 | 1.93 ± 0.01
313.15 K, x1 = 0.4008 | 764.18 ± 0.81 | 1266.6 ± 0.6 | 1.61 ± 0.01
313.15 K, x1 = 0.5001 | 765.69 ± 0.81 | 1260.8 ± 0.6 | 1.46 ± 0.01
313.15 K, x1 = 0.6009 | 767.5 ± 0.81 | 1255.6 ± 0.6 | 1.31 ± 0.01
313.15 K, x1 = 0.8301 | 772.64 ± 0.81 | 1240.3 ± 0.6 | 0.975 ± 0.012
313.15 K, x1 = 1 | 777.9 ± 0.81 | 1225.6 ± 0.6 | 0.75 ± 0.012
323.15 K, x1 = 0.2001 | 754.61 ± 0.81 | 1239 ± 0.6 | 1.61 ± 0.01
323.15 K, x1 = 0.4008 | 757.08 ± 0.81 | 1230 ± 0.6 | 1.37 ± 0.01
323.15 K, x1 = 0.5001 | 758.53 ± 0.81 | 1224 ± 0.6 | 1.25 ± 0.01
323.15 K, x1 = 0.6009 | 760.24 ± 0.81 | 1218.5 ± 0.6 | 1.13 ± 0.01
323.15 K, x1 = 0.8301 | 765.09 ± 0.81 | 1202 ± 0.6 | 0.858 ± 0.012
323.15 K, x1 = 1 | 770.04 ± 0.81 | 1185.9 ± 0.6 | 0.663 ± 0.011
333.15 K, x1 = 0.2001 | 747.61 ± 0.81 | 1203.8 ± 0.6 | 1.37 ± 0.01
333.15 K, x1 = 0.4008 | 749.96 ± 0.81 | 1194.3 ± 0.6 | 1.18 ± 0.01
333.15 K, x1 = 0.5001 | 751.33 ± 0.81 | 1188 ± 0.6 | 1.07 ± 0.01
333.15 K, x1 = 0.6009 | 752.95 ± 0.81 | 1182.1 ± 0.6 | 0.97 ± 0.012
333.15 K, x1 = 0.8301 | 757.51 ± 0.81 | 1164.5 ± 0.6 | 0.747 ± 0.012
333.15 K, x1 = 1 | 762.12 ± 0.81 | 1147.3 ± 0.6 | 0.584 ± 0.011
343.15 K, x1 = 0.2001 | 740.6 ± 0.8 | – | 1.19 ± 0.01
343.15 K, x1 = 0.4008 | 742.9 ± 0.8 | – | 1.03 ± 0.01
343.15 K, x1 = 0.5001 | 744.1 ± 0.8 | – | 0.946 ± 0.012
343.15 K, x1 = 0.6009 | 745.6 ± 0.8 | – | 0.863 ± 0.012
343.15 K, x1 = 0.8301 | 749.8 ± 0.8 | – | 0.673 ± 0.011
343.15 K, x1 = 1 | 754.2 ± 0.8 | – | 0.544 ± 0.011
353.15 K, x1 = 0.2001 | 733.6 ± 0.8 | – | 1.02 ± 0.01
353.15 K, x1 = 0.4008 | 735.7 ± 0.8 | – | 0.905 ± 0.012
353.15 K, x1 = 0.5001 | 736.9 ± 0.8 | – | 0.834 ± 0.012
353.15 K, x1 = 0.6009 | 738.3 ± 0.8 | – | 0.764 ± 0.012
353.15 K, x1 = 0.8301 | 742.2 ± 0.8 | – | 0.594 ± 0.011
353.15 K, x1 = 1 | 746.1 ± 0.8 | – | 0.477 ± 0.011
363.15 K, x1 = 0.2001 | 726.5 ± 0.8 | – | 0.918 ± 0.012
363.15 K, x1 = 0.4008 | 728.5 ± 0.8 | – | 0.805 ± 0.012
363.15 K, x1 = 0.5001 | 729.5 ± 0.8 | – | 0.746 ± 0.012
363.15 K, x1 = 0.6009 | 730.8 ± 0.8 | – | 0.685 ± 0.011
363.15 K, x1 = 0.8301 | 734.6 ± 0.8 | – | 0.503 ± 0.021
363.15 K, x1 = 1 | 738 ± 0.8 | – | 0.452 ± 0.011

CCCCCCCCCCC1CCCCC1 [decylcyclohexane] + CCCCCCCCCCCCCCCC
Details | mass density [kg/m3] | speed of sound [m/s] | viscosity [mPa·s]
293.15 K, x1 = 0.2 | 781.98 ± 0.81 | 1366.2 ± 0.7 | 3.73 ± 0.03
293.15 K, x1 = 0.4 | 790.75 ± 0.81 | 1375.8 ± 0.7 | 4.03 ± 0.02
293.15 K, x1 = 0.4999 | 795.26 ± 0.81 | 1380.7 ± 0.7 | 4.19 ± 0.02
293.15 K, x1 = 0.6008 | 799.82 ± 0.81 | 1385.6 ± 0.8 | 4.36 ± 0.03
293.15 K, x1 = 0.7237 | 805.48 ± 0.81 | 1392 ± 0.8 | 4.63 ± 0.02
293.15 K, x1 = 1 | 818.55 ± 0.81 | 1406.7 ± 0.9 | 5.32 ± 0.03
303.15 K, x1 = 0.2 | 775.08 ± 0.81 | 1329 ± 0.7 | 2.95 ± 0.02
303.15 K, x1 = 0.4 | 783.89 ± 0.81 | 1338.4 ± 0.7 | 3.16 ± 0.02
303.15 K, x1 = 0.4999 | 788.42 ± 0.81 | 1343.3 ± 0.7 | 3.29 ± 0.02
303.15 K, x1 = 0.6008 | 792.99 ± 0.81 | 1348.3 ± 0.7 | 3.41 ± 0.02
303.15 K, x1 = 0.7237 | 798.67 ± 0.81 | 1354.7 ± 0.8 | 3.6 ± 0.02
303.15 K, x1 = 1 | 811.78 ± 0.81 | 1369.4 ± 0.9 | 4.09 ± 0.02
313.15 K, x1 = 0.2 | 768.19 ± 0.81 | 1292.6 ± 0.7 | 2.39 ± 0.02
313.15 K, x1 = 0.4 | 777.04 ± 0.81 | 1301.9 ± 0.7 | 2.54 ± 0.02
313.15 K, x1 = 0.4999 | 781.59 ± 0.81 | 1306.8 ± 0.7 | 2.64 ± 0.02
313.15 K, x1 = 0.6008 | 786.18 ± 0.81 | 1311.8 ± 0.7 | 2.73 ± 0.02
313.15 K, x1 = 0.7237 | 791.88 ± 0.81 | 1318.3 ± 0.8 | 2.87 ± 0.02
313.15 K, x1 = 1 | 805.02 ± 0.81 | 1333 ± 0.9 | 3.23 ± 0.02
323.15 K, x1 = 0.2 | 761.3 ± 0.81 | 1256.8 ± 0.7 | 1.97 ± 0.01
323.15 K, x1 = 0.4 | 770.2 ± 0.81 | 1266.2 ± 0.7 | 2.09 ± 0.02
323.15 K, x1 = 0.4999 | 774.76 ± 0.81 | 1271.1 ± 0.7 | 2.18 ± 0.02
323.15 K, x1 = 0.6008 | 779.37 ± 0.81 | 1276.2 ± 0.7 | 2.24 ± 0.02
323.15 K, x1 = 0.7237 | 785.08 ± 0.81 | 1282.7 ± 0.8 | 2.34 ± 0.02
323.15 K, x1 = 1 | 798.27 ± 0.81 | 1297.5 ± 0.9 | 2.62 ± 0.02
333.15 K, x1 = 0.2 | 754.42 ± 0.81 | 1221.9 ± 0.7 | 1.65 ± 0.01
333.15 K, x1 = 0.4 | 763.35 ± 0.81 | 1231.6 ± 0.7 | 1.75 ± 0.01
333.15 K, x1 = 0.4999 | 767.92 ± 0.81 | 1236.3 ± 0.7 | 1.81 ± 0.01
333.15 K, x1 = 0.6008 | 772.55 ± 0.81 | 1241.5 ± 0.7 | 1.87 ± 0.02
333.15 K, x1 = 0.7237 | 778.28 ± 0.81 | 1248.2 ± 0.8 | 1.95 ± 0.02
333.15 K, x1 = 1 | 791.5 ± 0.81 | 1262.9 ± 0.9 | 2.16 ± 0.02
343.15 K, x1 = 0.2 | 747.5 ± 0.8 | – | 1.42 ± 0.01
343.15 K, x1 = 0.4 | 756.5 ± 0.8 | – | 1.48 ± 0.01
343.15 K, x1 = 0.4999 | 761.3 ± 0.8 | – | 1.54 ± 0.01
343.15 K, x1 = 0.6008 | 765.8 ± 0.8 | – | 1.58 ± 0.01
343.15 K, x1 = 0.7237 | 771.6 ± 0.8 | – | 1.64 ± 0.01
343.15 K, x1 = 1 | 784.8 ± 0.8 | – | 1.82 ± 0.02
353.15 K, x1 = 0.2 | 740.7 ± 0.8 | – | 1.21 ± 0.01
353.15 K, x1 = 0.4 | 749.7 ± 0.8 | – | 1.28 ± 0.01
353.15 K, x1 = 0.4999 | 754.4 ± 0.8 | – | 1.32 ± 0.01
353.15 K, x1 = 0.6008 | 759 ± 0.8 | – | 1.36 ± 0.01
353.15 K, x1 = 0.7237 | 764.8 ± 0.8 | – | 1.41 ± 0.01
353.15 K, x1 = 1 | 778 ± 0.8 | – | 1.55 ± 0.01
363.15 K, x1 = 0.2 | 733.7 ± 0.8 | – | 1.08 ± 0.01
363.15 K, x1 = 0.4 | 742.8 ± 0.8 | – | 1.1 ± 0.01
363.15 K, x1 = 0.4999 | 747.6 ± 0.8 | – | 1.17 ± 0.01
363.15 K, x1 = 0.6008 | 752.1 ± 0.8 | – | 1.18 ± 0.01
363.15 K, x1 = 0.7237 | 758 ± 0.8 | – | 1.22 ± 0.01
363.15 K, x1 = 1 | 771.2 ± 0.8 | – | 1.34 ± 0.01
373.15 K, x1 = 0.2 | 726.8 ± 0.8 | – | 0.926 ± 0.012
373.15 K, x1 = 0.4 | 735.9 ± 0.8 | – | 0.979 ± 0.012
373.15 K, x1 = 0.4999 | 740.7 ± 0.8 | – | 1.01 ± 0.01
373.15 K, x1 = 0.6008 | 745.2 ± 0.8 | – | 1.04 ± 0.01
373.15 K, x1 = 0.7237 | 751.1 ± 0.8 | – | 1.07 ± 0.01
373.15 K, x1 = 1 | 764.4 ± 0.8 | – | 1.17 ± 0.01
